In data set [1] the target is Serine/threonine-protein kinase mTOR (Homo sapiens, UniProt P42345). Briefly: Inhibition of mTOR (unknown origin) using ULight-4E-BP1 as substrate measured after 45 mins in presence of ATP by LANCE Ultra assay. A general note: Time-resolved FRET reads energy transfer from a long-lived donor to a nearby acceptor.
Data set [2] concerns the target T1, Phosphatidylinositol 4,5-bisphosphate 3-kinase catalytic subunit delta isoform (Homo sapiens, UniProt O00329).
T1 sequence (O00329 whole entry): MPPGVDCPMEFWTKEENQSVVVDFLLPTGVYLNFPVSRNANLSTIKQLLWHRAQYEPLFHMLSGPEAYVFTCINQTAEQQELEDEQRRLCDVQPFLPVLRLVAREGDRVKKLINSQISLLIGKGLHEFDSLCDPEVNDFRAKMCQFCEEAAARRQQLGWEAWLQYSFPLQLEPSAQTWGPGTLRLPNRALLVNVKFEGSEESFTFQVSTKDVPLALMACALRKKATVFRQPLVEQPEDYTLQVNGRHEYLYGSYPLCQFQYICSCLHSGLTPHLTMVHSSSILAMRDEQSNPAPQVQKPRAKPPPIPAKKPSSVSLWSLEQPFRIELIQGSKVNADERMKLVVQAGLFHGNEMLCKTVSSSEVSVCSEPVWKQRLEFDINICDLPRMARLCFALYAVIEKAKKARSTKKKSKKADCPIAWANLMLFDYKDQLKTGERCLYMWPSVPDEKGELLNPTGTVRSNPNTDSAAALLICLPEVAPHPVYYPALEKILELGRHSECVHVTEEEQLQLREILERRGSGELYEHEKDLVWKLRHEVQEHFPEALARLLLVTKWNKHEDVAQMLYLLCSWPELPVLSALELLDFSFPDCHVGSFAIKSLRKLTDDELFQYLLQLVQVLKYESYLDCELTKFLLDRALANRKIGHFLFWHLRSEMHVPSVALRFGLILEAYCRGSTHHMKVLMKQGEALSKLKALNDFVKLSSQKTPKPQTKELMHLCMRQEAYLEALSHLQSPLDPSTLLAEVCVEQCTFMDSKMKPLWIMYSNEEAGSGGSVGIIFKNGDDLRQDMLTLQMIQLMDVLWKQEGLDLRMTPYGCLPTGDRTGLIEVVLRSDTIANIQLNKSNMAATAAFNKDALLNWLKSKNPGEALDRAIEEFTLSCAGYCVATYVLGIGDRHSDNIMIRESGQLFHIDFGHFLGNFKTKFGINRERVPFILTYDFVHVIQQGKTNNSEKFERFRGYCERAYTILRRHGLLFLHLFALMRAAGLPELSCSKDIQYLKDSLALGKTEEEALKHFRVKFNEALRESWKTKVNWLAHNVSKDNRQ
Briefly: Inhibition of PI3Kdelta (unknown origin) using PIP2 as substrate measured after 1 hr in presence of ATP by ADP-Glo reagent based assay.

The next data set concerns MDA-MB-231. The data set is described as follows: Antiproliferative activity against human MDA-MB-231 cells assessed as reduction in cell viability after 48 hrs by MTT assay. In kind it is functional, cell-based. The following applies: MDA-MB-231, 48 h. (Tetrazolium assays rely on reduction of a dye to a coloured formazan, in cell work by metabolically active cells.)
A further data set relates to HeLa. Briefly: Antiproliferative activity against human HeLa cells assessed as reduction in cell viability after 48 hrs by MTT assay. In kind it is functional, cell-based.
Another data set has as its system CNE-2. The data set is described as follows: Antiproliferative activity against human CNE2 cells assessed as reduction in cell viability after 48 hrs by MTT assay. The class given is functional, cell-based. As to conditions: CNE-2, 48 h.
Data set [3] deals with HCT-116. Briefly: Antiproliferative activity against human HCT116 cells assessed as reduction in cell viability after 48 hrs by MTT assay. In kind it is functional, cell-based. As to conditions: HCT-116, 48 h.
The subject of another data set is HepG2. The data set is described as follows: Antiproliferative activity against human HepG2 cells assessed as reduction in cell viability after 48 hrs by MTT assay. In kind it is functional, cell-based. The following applies: HepG2, 48 h.
The next data set relates to MCF7. Briefly: Antiproliferative activity against human MCF-7 cells assessed as reduction in cell viability after 48 hrs by MTT assay. The class given is functional, cell-based. As to conditions: MCF7, 48 h.
Data set [4] in a line: Metabolic stability in artificial gastrointestinal fluids.
The nature of data set [5]: Metabolic stability in rat liver microsomes assessed as compound remaining measured after 45 mins. The class given is ADME, Microsome. The following applies: 0.75 h. (Liver microsomes are a subcellular fraction often used to study metabolism.)
The test system of data set [6] is HCT-116. Briefly: Inhibition of PI3K/mTOR signaling in human HCT116 cells assessed as reduction in AKT phosphorylation at 10 uM measured by Western blot analysis. The class given is cell-based.
Data set [7] has as its system HCT-116. Briefly: Inhibition of PI3K/mTOR signaling in human HCT116 cells assessed as reduction in […] phosphorylation at 10 uM measured by Western blot analysis. The class given is cell-based.

This note sets out measurements from ChEMBL document CHEMBL4765397, “Design, synthesis and bioevaluation of novel substituted triazines as potential dual PI3K/mTOR inhibitors” (Eur J Med Chem, 2020).

A word on the IC50: it is the concentration at which inhibition is half-maximal.

Calls of active or inactive are those of the source. No cut-off for these calls is given here.

With `NC(=O)C1CCCCN1C(=O)c1ccc2nc(Nc3ccc(-c4nc(N5CCOCC5)nc(N5CCOCC5)n4)cc3)[nH]c2c1` (centres undefined), the IC50 in data set [1] worked out at 8.5 µM.
`NC(=O)C1(N)CCN(C(=O)c2ccc3nc(Nc4ccc(-c5nc(N6CCOCC6)nc(N6CCOCC6)n5)cc4)[nH]c3c2)CC1`: the IC50 in data set [1] came to 5.7 µM.
On to `C[C@H](NC(=O)c1ccc2nc(Nc3ccc(-c4nc(N5CCOCC5)nc(N5CCOCC5)n4)cc3)[nH]c2c1)C(N)=O`, for which the IC50 in data set [1] came out at 5.8 µM; in data set [2], 0.005 µM; in the data set with MDA-MB-231, 1.9 µM; with HeLa it was 1.3 µM; in the data set with CNE-2, 12.3 µM; in the data set with HCT-116 [3], 0.7 µM. In addition, the IC50 in the data set with HepG2 was 7.9 µM; with MCF7, 0.4 µM.
On to `NC(=O)C1CCN(C(=O)c2ccc3nc(Nc4ccc(-c5nc(N6CCOCC6)nc(N6CCOCC6)n5)cc4)[nH]c3c2)CC1`, for which the IC50 in data set [1] was 15.4 µM; in [2] it was 0.0023 µM.
The corresponding values for `CN1CCN(C(=O)c2ccc3nc(Nc4ccc(-c5nc(N6CCOCC6)nc(N6CCOCC6)n5)cc4)[nH]c3c2)CC1` are 13.1 µM and 0.013 µM.
With `NC(=O)[C@@H]1CCCN1C(=O)c1ccc2nc(Nc3ccc(-c4nc(N5CCOCC5)nc(N5CCOCC5)n4)cc3)[nH]c2c1`, the IC50 in [1] amounted to 11.8 µM. Moreover, the Stability entry in [4] is “Stable”. Moreover, the Stabilty entry in data set [5] was “Stable”.
As to `NC(=O)C1CCCN(C(=O)c2ccc3nc(Nc4ccc(-c5nc(N6CCOCC6)nc(N6CCOCC6)n5)cc4)[nH]c3c2)C1` (centres undefined), the IC50 in [1] was 10.2 µM.
Regarding `CN(C)C1CCN(C(=O)c2ccc3nc(Nc4ccc(-c5nc(N6CCOCC6)nc(N6CCOCC6)n5)cc4)[nH]c3c2)CC1`, the IC50 in data set [1] is 14.6 µM.
In the case of `NC(=O)[C@H]1CCCN1C(=O)c1ccc2nc(Nc3ccc(-c4nc(N5CCOCC5)nc(N5CCOCC5)n4)cc3)[nH]c2c1`, the IC50 in data set [1] was 5.6 µM; in data set [2] it was 0.0051 µM; in the data set with MDA-MB-231 it was 5.5 µM; in the data set with HeLa, 7.7 µM; with CNE-2, 7.3 µM; in the data set on HCT-116 [3] it was 0.9 µM. Besides, the IC50 came out at 23 µM in the data set on HepG2 and 0.3 µM in the data set with MCF7. Besides, the inhibition result in the data set with HCT-116 [6] and in the data set with HCT-116 [7] was “Active” throughout. Also, the Stability result in data set [4] is on record as “Stable”. In addition, the Stabilty entry in [5] is on record as “Stable”.
`CS(=O)(=O)N1CCN(C(=O)c2ccc3nc(Nc4ccc(-c5nc(N6CCOCC6)nc(N6CCOCC6)n5)cc4)[nH]c3c2)CC1`: the IC50 in data set [1] was 11.9 µM.
Regarding `O=C(c1ccc2nc(Nc3ccc(-c4nc(N5CCOCC5)nc(N5CCOCC5)n4)cc3)[nH]c2c1)N1CCOCC1`, the IC50 was found to be 12.9 µM in [1]; 0.044 µM in data set [2]; 4.8 µM in the data set with MDA-MB-231; 2.4 µM in the data set with HeLa; 6.9 µM in the data set with CNE-2; 0.3 µM in the data set on HCT-116 [3]. For the same compound, the IC50 in the data set with HepG2 was determined as 1.3 µM; in the data set with MCF7, 1.2 µM. In addition, the inhibition entry with HCT-116 [6] and with HCT-116 [7] was “Active” in each case. For the same compound, in data set [4], the Stability entry was “Stable”. Moreover, the Stabilty entry in [5] is listed as “Unstable”.
